Test results from US10385014B2, “Acyloxyalkyl carbamate prodrugs, methods of synthesis and use” (ARBOR PHARMACEUTICALS, LLC, priority 2003, dated 2019).

Key:
[1] = Prodrug stability in human liver S9; assay type: in vitro ADME; settings: Human Liver S9 (0.5 mg/mL), 2.0 μM, NADPH, 37° C.
Procedure: (§1) The stabilities of prodrugs were evaluated in one or more in vitro systems using a variety of tissue preparations following methods known in the art. The chemical stability of prodrugs in aqueous buffers at pH's of 2.0, 7.4 and 8.0 were also measured. […] Each preparation was incubated with test compound at 37° C. for one hour. Aliquots (50 μL) were removed at 0, 30, and 60 min and quenched with 0.1% trifluoroacetic acid in acetonitrile. Samples were then centrifuged and analyzed by LC/MS/MS (see Example 86 below for method details).

[2] = Caco-2 homogenate S9 stability; assay type: in vitro ADME; settings: Caco-2 S9 (0.5 mg protein per mL), 5 μM, 37° C.
Procedure: Caco-2 Homogenate S9 Stability: Caco-2 cells were grown for 21 days prior to harvesting. Culture medium was removed and cell monolayers were rinsed and scraped off into ice-cold 10 mM sodium phosphate/0.15 M potassium chloride, pH 7.4. Cells were lysed by sonication at 4° C. using a probe sonicator. Lysed cells were then transferred into 1.5 mL centrifuge vials and centrifuged at 9000 g for 20 min at 4° C. The resulting supernatant (Caco-2 cell homogenate S9 fraction) was aliquoted into 0.5 mL vials and stored at −80° C. until used.
For stability studies, prodrug (5 μM) was incubated in Caco-2 homogenate S9 fraction (0.5 mg protein per mL) for 60 min at 37° C. Concentrations of intact prodrug and released baclofen were determined at zero time and 60 minutes using LC/MS/MS.

[3] = Chemical stability of prodrugs in aqueous buffers; assay type: physicochemical
Procedure: as §1

[4] = Prodrug stability in rat liver S9; assay type: in vitro ADME; settings: Rat Liver S9 (0.5 mg/mL), 2.0 μM, NADPH, 37° C.
Procedure: as §1

[5] = Prodrug stability in human plasma in vitro; assay type: in vitro ADME; settings: 2.0 μM, 37° C.
Procedure: as §1

Structure (SMILES)	% of Prodrug Remaining after 60 min [1] [%]	% of Prodrug Remaining after 60 min [2] [%]	% of Baclofen Released after 60 min ([3]; aqueous buffer pH 2.0, 37° C.) [%]	% of Baclofen Released after 60 min ([3]; aqueous buffer pH 7.4, 37° C.) [%]	% of Baclofen Released after 60 min ([3]; aqueous buffer pH 8.0, 37° C.) [%]	% of Prodrug Remaining after 60 min [4] [%]	% of Baclofen Released after 60 min [1] [%]	% of Baclofen Released after 60 min [5] [%]	% of Baclofen Released after 60 min [2] [%]	% of Prodrug Remaining after 60 min ([3]; aqueous buffer pH 2.0, 37° C.) [%]	% of Prodrug Remaining after 60 min ([3]; aqueous buffer pH 7.4, 37° C.) [%]	% of Baclofen Released after 60 min [4] [%]	% of Prodrug Remaining after 60 min ([3]; aqueous buffer pH 8.0, 37° C.) [%]
CC(=O)OCOC(=O)NC[C@H](CC(=O)[O-])c1ccc(Cl)cc1.[Na+] [(10), Sodium 4-[(Acetoxymethoxy)carbonylamino]-(3R)-(4-chlorophenyl)-butanoate]	1	2	1	3	9	0	–	–	–	–	–	–	–
O=C([O-])C[C@@H](CNC(=O)OCOC(=O)c1ccccc1)c1ccc(Cl)cc1.[Na+] [(12), Sodium 4-[(Benzoyloxymethoxy)carbonylamino]-(3R)-(4-chlorophenyl)-butanoate]	1	2	0	0	0	3	100	5	100	100	100	–	–
CC(=O)OC(OC(=O)NC[C@H](CC(=O)[O-])c1ccc(Cl)cc1)C(C)C.[Na+] (stereo partly drawn) [(23), Sodium 4-[(1-Acetoxyisobutoxy)carbonylamino]-(3R)-(4-chlorophenyl)-butanoate]	4	–	0	1	2	3	–	3	–	107	–	–	–
CC(OC(=O)NC[C@H](CC(=O)[O-])c1ccc(Cl)cc1)OC(=O)C(C)C.[Na+] (stereo partly drawn) [(33), Sodium 4-[(1-Isobutanoyloxyethoxy)carbonylamino]-(3R)-(4-chlorophenyl)-butanoate]	3	3	0	0	0	4	101	4	–	–	–	101	–
CC(OC(=O)NC[C@H](CC(=O)[O-])c1ccc(Cl)cc1)OC(=O)c1ccccc1.[Na+] (stereo partly drawn) [(40), Sodium 4-[(1-Benzoyloxyethoxy)carbonylamino]-(3R)-(4-chlorophenyl)-butanoate]	1	–	0	0	2	8	–	2	–	–	–	–	–
O=C([O-])C[C@@H](CNC(=O)OCOC(=O)c1cccs1)c1ccc(Cl)cc1.[Na+] [(57), Sodium 4-[(2-Thienylcarbonyloxymethoxy)carbonylamino]-(3R)-(4-chlorophenyl)-butanoate]	1	2	0	0	0	2	–	–	–	–	100	–	100
CC(C)C(=O)OC(OC(=O)NC[C@H](CC(=O)[O-])c1ccc(Cl)cc1)C1CCCCC1.[Na+] (stereo partly drawn) [(84), Sodium 4-[(1-Isobutanoyloxy-1-cyclohexylmethoxy)carbonylamino]-(3R)-(4-chlorophenyl)-butanoate]	2	–	0	0	1	4	–	4	–	–	–	91	–
